# Reference: ChEMBL document CHEMBL1156578, “Countercurrent separation of natural products” (J Nat Prod, 2008)
# How the values were obtained:
# [1] = Octanol-water partition coefficient, log KOW in heptane-ethyl alcohol-water (4:1:4); type: physicochemical
# [2] = Partition coefficient, log K in n-butyl alcohol-ethyl acetate-water by shake flask method (1:4:5); type: physicochemical
# [3] = Partition coefficient, log K in n-hexane-ethyl acetate-ethyl alcohol-water (5:5:3:7); type: physicochemical
# [4] = Partition coefficient, log K in n-hexane-ethyl acetate-ethyl alcohol-water (3:7:3:7); type: physicochemical
# [5] = Partition coefficient, log K in n-hexane-ethyl acetate-ethyl alcohol-water (3:7:1:9); type: physicochemical
# [6] = Partition coefficient, log K in n-hexane-ethyl acetate-ethyl alcohol-water (1:9:1:9); type: physicochemical
# [7] = Partition coefficient, K in n-butyl alcohol-ethyl acetate-water by shake flask method (2:3:5)
log K [1],log K [2],log K [3],log K [4],log K [5],log K [6],K [7],Structure (SMILES)
1.51,–,–,–,–,–,–,CCNC(=O)c1ccccc1
1.56,–,–,–,–,–,–,"COc1ccc(/C=C/C(=O)O)cc1OC [O,O'-DIMETHYLCAFFEIC ACID]"
–,3.87,0.099,0.246,0.312,0.799,6.25,COc1ccc([C@@H]2OC[C@H]3[C@@H]2CO[C@@H]3c2ccc(O[C@@H]3O[C@H](CO)[C@@H](O)[C@H](O)[C@H]3O)c(OC)c2)cc1OC [PHILLYRIN]
